Columns and labels:
bedstraw = assay: Test B pre/postemergence bedstraw; assay type: in vivo, Galium aparine; settings: Postemergence
Summary of the method: (§1)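 Test chemicals in a non-phytotoxic solvent mixture with surfactant were sprayed preemergence onto planted seeds and postemergence onto plants 2 to 18 cm tall (1- to 4-leaf stage). After twelve to sixteen days in a greenhouse, injury was visually rated against untreated controls from 0 (no effect) to 10 (complete control).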

blackgrass = assay: Test B pre/postemergence blackgrass; assay type: in vivo, Alopecurus myosuroides; settings: for Blackgrass plant response rating: scale of 0 to 10 where 0 is no effect and 10 is complete control
Summary of the method: as §1

surinam grass = assay: Test B pre/postemergence surinam grass; assay type: in vivo, Brachiaria decumbens; settings: for B. signalgrass plant response rating: scale of 0 to 10 where 0 is no effect and 10 is complete control
Summary of the method: as §1

cocklebur = assay: Test B pre/postemergence cocklebur; assay type: in vivo, Xanthium strumarium; settings: for Cocklebur plant response rating: scale of 0 to 10 where 0 is no effect and 10 is complete control
Summary of the method: as §1

corn = assay: Test B pre/postemergence corn; assay type: in vivo, Zea mays; settings: for Corn plant response rating: scale of 0 to 10 where 0 is no effect and 10 is complete control
Summary of the method: as §1

crabgrass = assay: Test B pre/postemergence crabgrass; assay type: in vivo, Digitaria sanguinalis; settings: for Crabgrass plant response rating: scale of 0 to 10 where 0 is no effect and 10 is complete control
Summary of the method: as §1

giant foxtail = assay: Test B pre/postemergence giant foxtail; assay type: in vivo, Setaria faberii; settings: for Giant foxtail plant response rating: scale of 0 to 10 where 0 is no effect and 10 is complete control
Summary of the method: as §1

pigweed = assay: Test B pre/postemergence pigweed; assay type: in vivo, Amaranthus retroflexus; settings: for Redroot pigweed plant response rating: scale of 0 to 10 where 0 is no effect and 10 is complete control
Summary of the method: as §1

soybean = assay: Test B pre/postemergence soybean; assay type: in vivo, Glycine max; settings: for Soybean plant response rating: scale of 0 to 10 where 0 is no effect and 10 is complete control
Summary of the method: as §1

sugar beet = assay: Test B pre/postemergence sugar beet; assay type: in vivo, Beta vulgaris; settings: for Sugarbeets plant response rating: scale of 0 to 10 where 0 is no effect and 10 is complete control
Summary of the method: as §1

velvetleaf = assay: Test B pre/postemergence velvetleaf; assay type: in vivo, Abutilon theophrasti; settings: for Velvetleaf plant response rating: scale of 0 to 10 where 0 is no effect and 10 is complete control
Summary of the method: as §1

wheat = assay: Test B pre/postemergence wheat; assay type: in vivo, Triticum aestivum; settings: for Wheat plant response rating: scale of 0 to 10 where 0 is no effect and 10 is complete control
Summary of the method: as §1

wild oat = assay: Test B pre/postemergence wild oat; assay type: in vivo, Avena fatua; settings: for Wild oats plant response rating: scale of 0 to 10 where 0 is no effect and 10 is complete control
Summary of the method: as §1

purple nutsedge = assay: Test B pre/postemergence purple nutsedge; assay type: in vivo, Cyperus rotundus; settings: for Nutsedge plant response rating: scale of 0 to 10 where 0 is no effect and 10 is complete control
Summary of the method: as §1

rice = assay: Test B flood test rice; assay type: in vivo, Oryza sativa
Summary of the method: (§2)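 Read-out is a visual response score from 0 (no effect) to 10 (complete control), assigned by comparison with untreated controls. Treatment was applied at the 2-leaf stage, and plants stayed in the greenhouse for twelve to sixteen days before scoring.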

duck salad = assay: Test B flood test duck salad; assay type: in vivo, Heteranthera limosa
Summary of the method: as §2

[1] = Postemergence, Rate 125 g/ha, scale 0 to 10, 0 is no effect, 10 is complete control
[2] = Postemergence, Rate 250 g/ha, scale 0 to 10, 0 is no effect, 10 is complete control
[3] = Preemergence, Rate 62 g/ha, scale 0 to 10 (0 no effect, 10 complete control)
[4] = Rate 500 g/ha, Postemergence, scale 0 to 10, 0 no effect, 10 complete control
[5] = Rate 62 g/ha, flood test species, Pre-emergence, visual evaluation after twelve to sixteen days
[6] = Rate 125 g/ha, under heading Pre-emergence, flood test species, visual evaluation after twelve to sixteen days
[7] = Rate 250 g/ha, Pre-emergence, flood-test species, scale 0 to 10, 0 is no effect, 10 is complete control
[8] = Rate 500 g/ha, Pre-emergence, flood test species, scale 0 to 10 (0 no effect, 10 complete control)

CC(C)N(C(=O)n1oc(=O)n(N2CCOCC2)c1=O)c1ccc(F)cc1F [Compound 384]
Plant response rating, Bedstraw (bedstraw; Rate 125 g/ha, scale 0 to 10, 0 is no effect, 10 is complete control): 0
Plant response rating, Bedstraw (bedstraw; Rate 250 g/ha, scale 0 to 10, 0 is no effect, 10 is complete control): 0
Bedstraw plant response rating (bedstraw; Rate 62 g/ha, scale of 0 to 10 where 0 is no effect and 10 is complete control): 0
Plant response rating, Bedstraw (bedstraw; Rate 500 g/ha, scale 0 to 10, 0 no effect, 10 complete control): 0
Plant response rating, Blackgrass (blackgrass; [1]): 4
Plant response rating, Blackgrass (blackgrass; [2]): 9
Plant response rating, Blackgrass (blackgrass; [3]): 0
Blackgrass plant response rating (0 to 10 scale) (blackgrass; Preemergence, Rate 125 g/ha): 0
Blackgrass plant response rating (blackgrass; Preemergence, Rate 250 g/ha): 3
Blackgrass plant response rating (blackgrass; Preemergence, Rate 500 g/ha): 7
Blackgrass plant response rating (blackgrass; Rate 62 g/ha, Postemergence): 3
Plant response rating, B. signalgrass (surinam grass; [1]): 3
Plant response rating, B. signalgrass (surinam grass; [2]): 6
Plant response rating, B. signalgrass (surinam grass; [3]): 0
B. signalgrass plant response rating (0 to 10 scale, 0 is no effect, 10 is complete control) (surinam grass; Preemergence, Rate 125 g/ha): 0
B. signalgrass plant response rating (surinam grass; Preemergence, Rate 250 g/ha): 3
B. signalgrass plant response rating (surinam grass; Preemergence, Rate 500 g/ha): 7
B. signalgrass plant response rating (surinam grass; Rate 62 g/ha, Postemergence): 0
Plant response rating, B. signalgrass (surinam grass; [4]): 7
Plant response rating, Cocklebur (cocklebur; [1]): 0
Plant response rating, Cocklebur (cocklebur; [2]): 0
Plant response rating, Cocklebur (cocklebur; [3]): 0
Cocklebur plant response rating (0 to 10 scale) (cocklebur; Preemergence, Rate 125 g/ha): 0
Cocklebur plant response rating (cocklebur; Preemergence, Rate 250 g/ha): 0
Cocklebur plant response rating (cocklebur; Preemergence, Rate 500 g/ha): 0
Cocklebur plant response rating (cocklebur; Rate 62 g/ha, Postemergence): 0
Plant response rating, Cocklebur (cocklebur; [4]): 0
Plant response rating, Corn (corn; [1]): 0
Plant response rating, Corn (corn; [2]): 0
Plant response rating, Corn (corn; [3]): 0
Corn plant response rating (corn; Preemergence, Rate 500 g/ha): 5
Corn plant response rating (corn; Rate 62 g/ha, Postemergence): 0
Plant response rating, Corn (corn; [4]): 0
Plant response rating, Crabgrass (crabgrass; [1]): 7
Plant response rating, Crabgrass (crabgrass; [2]): 8
Plant response rating, Crabgrass (crabgrass; [3]): 6
Crabgrass plant response rating (0 to 10 scale) (crabgrass; Preemergence, Rate 125 g/ha): 6
Crabgrass plant response rating (crabgrass; Preemergence, Rate 250 g/ha): 9
Crabgrass plant response rating (crabgrass; Preemergence, Rate 500 g/ha): 9
Crabgrass plant response rating (crabgrass; Rate 62 g/ha, Postemergence): 1
Plant response rating, Crabgrass (crabgrass; [4]): 8
Plant response rating, Giant foxtail (giant foxtail; [1]): 8
Plant response rating, Giant foxtail (giant foxtail; [2]): 9
Plant response rating, Giant foxtail (giant foxtail; [3]): 9
Giant foxtail plant response rating (0 to 10 scale) (giant foxtail; Preemergence, Rate 125 g/ha): 10
Giant foxtail plant response rating (giant foxtail; Preemergence, Rate 250 g/ha): 10
Giant foxtail plant response rating (giant foxtail; Preemergence, Rate 500 g/ha): 10
Giant foxtail plant response rating (giant foxtail; Rate 62 g/ha, Postemergence): 4
Plant response rating, Giant foxtail (giant foxtail; [4]): 9
Plant response rating, Redroot pigweed (pigweed; [1]): 0
Plant response rating, Redroot pigweed (pigweed; [2]): 0
Plant response rating, Redroot pigweed (pigweed; [3]): 0
Redroot pigweed plant response rating (0 to 10 scale) (pigweed; Preemergence, Rate 125 g/ha): 0
Redroot pigweed plant response rating (pigweed; Preemergence, Rate 250 g/ha): 0
Redroot pigweed plant response rating (pigweed; Preemergence, Rate 500 g/ha): 0
Redroot pigweed plant response rating (pigweed; Rate 62 g/ha, Postemergence): 0
Plant response rating, Redroot pigweed (pigweed; [4]): 0
Plant response rating, Soybean (soybean; [1]): 2
Plant response rating, Soybean (soybean; [2]): 3
Plant response rating, Soybean (soybean; [3]): 0
Soybean plant response rating (0 to 10 scale) (soybean; Preemergence, Rate 125 g/ha): 0
Soybean plant response rating (soybean; Preemergence, Rate 250 g/ha): 0
Soybean plant response rating (soybean; Preemergence, Rate 500 g/ha): 3
Soybean plant response rating (soybean; Rate 62 g/ha, Postemergence): 1
Plant response rating, Soybean (soybean; [4]): 3
Plant response rating, Sugarbeets (sugar beet; [1]): 0
Plant response rating, Sugarbeets (sugar beet; [2]): 0
Plant response rating, Sugarbeets (sugar beet; [3]): 0
Sugarbeets plant response rating (0 to 10 scale) (sugar beet; Preemergence, Rate 125 g/ha): 0
Sugarbeets plant response rating (sugar beet; Preemergence, Rate 250 g/ha): 0
Sugarbeets plant response rating (sugar beet; Preemergence, Rate 500 g/ha): 2
Sugarbeets plant response rating (sugar beet; Rate 62 g/ha, Postemergence): 0
Plant response rating, Sugarbeets (sugar beet; [4]): 0
Plant response rating, Velvetleaf (velvetleaf; [1]): 0
Plant response rating, Velvetleaf (velvetleaf; [2]): 0
Plant response rating, Velvetleaf (velvetleaf; [3]): 0
Velvetleaf plant response rating (0 to 10 scale) (velvetleaf; Preemergence, Rate 125 g/ha): 0
Velvetleaf plant response rating (velvetleaf; Preemergence, Rate 250 g/ha): 1
Velvetleaf plant response rating (velvetleaf; Preemergence, Rate 500 g/ha): 3
Velvetleaf plant response rating (velvetleaf; Rate 62 g/ha, Postemergence): 0
Plant response rating, Velvetleaf (velvetleaf; [4]): 0
Plant response rating, Wheat (wheat; [1]): 0
Plant response rating, Wheat (wheat; [2]): 2
Plant response rating, Wheat (wheat; [3]): 0
Wheat plant response rating (0 to 10 scale) (wheat; Preemergence, Rate 125 g/ha): 0
Wheat plant response rating (wheat; Preemergence, Rate 250 g/ha): 2
Wheat plant response rating (wheat; Preemergence, Rate 500 g/ha): 3
Wheat plant response rating (wheat; Rate 62 g/ha, Postemergence): 0
Plant response rating, Wheat (wheat; [4]): 3
Plant response rating, Wild oats (wild oat; [1]): 0
Plant response rating, Wild oats (wild oat; [2]): 0
Plant response rating, Wild oats (wild oat; [3]): 0
Wild oats plant response rating (0 to 10 scale) (wild oat; Preemergence, Rate 125 g/ha): 0
Wild oats plant response rating (wild oat; Preemergence, Rate 250 g/ha): 6
Wild oats plant response rating (wild oat; Preemergence, Rate 500 g/ha): 6
Wild oats plant response rating (wild oat; Rate 62 g/ha, Postemergence): 0
Plant response rating, Wild oats (wild oat; [4]): 4
Plant response rating, Nutsedge (purple nutsedge; [1]): 0
Plant response rating, Nutsedge (purple nutsedge; [2]): 0
Plant response rating, Nutsedge (purple nutsedge; [3]): 0
Nutsedge plant response rating (0 to 10 scale) (purple nutsedge; Preemergence, Rate 125 g/ha): 0
Nutsedge plant response rating (purple nutsedge; Preemergence, Rate 250 g/ha): 0
Nutsedge plant response rating (purple nutsedge; Preemergence, Rate 500 g/ha): 0
Nutsedge plant response rating (purple nutsedge; Rate 62 g/ha, Postemergence): 0
Plant response rating, Nutsedge (purple nutsedge; [4]): 0
Plant response rating, Rice (0 to 10 scale, 0 is no effect, 10 is complete control) (rice; [5]): 0
Rice plant response rating (0 to 10 scale, 0 is no effect, 10 is complete control) (rice; [6]): 0
Rice plant response rating (rice; [7]): 0
Rice plant response rating (rice; [8]): 0
Plant response rating, Ducksalad (0 to 10 scale, 0 is no effect, 10 is complete control) (duck salad; [5]): 0
Ducksalad plant response rating (0 to 10 scale, 0 is no effect, 10 is complete control) (duck salad; [6]): 0
Ducksalad plant response rating (duck salad; [7]): 0
Ducksalad plant response rating (duck salad; [8]): 0

Reference: patent publication US6737383B1, “Herbicidal oxadiazolidines” (priority 1999, dated 2004)
